From PubChem BioAssay (NCI)
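Results reflect a 48-hour exposure of cells in 96-well plates to compound at five concentrations. TGI: total growth inhibition.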

Columns and labels:
Experiment in all cases: NCI tumour cell line growth inhibition, 48 h
[1] = system: A498 renal
[2] = system: ACHN renal
[3] = system: CAKI-1 renal
[4] = system: CCRF-CEM leukemia
[5] = system: COLO 205 colon
[6] = system: DLD-1 colon
[7] = system: DMS 114 small cell lung
[8] = system: DMS 273 small cell lung
[9] = system: EKVX NSCLC
[10] = system: HCT-116 colon
[11] = system: HCT-15 colon
[12] = system: HL-60(TB) leukemia
[13] = system: HOP-18 NSCLC
[14] = system: HOP-62 NSCLC
[15] = system: HOP-92 NSCLC
[16] = system: HT29 colon
[17] = system: IGROV1 ovarian
[18] = system: K-562 leukemia
[19] = system: KM20L2 colon
[20] = system: LOX IMVI melanoma
[21] = system: LXFL 529 NSCLC
[22] = system: M14 melanoma
[23] = system: M19-MEL melanoma
[24] = system: MALME-3M melanoma
[25] = system: MOLT-4 leukemia
[26] = system: NCI-H226 lung
[27] = system: NCI-H460 lung
[28] = system: NCI-H522 lung
[29] = system: OVCAR-3 ovarian
[30] = system: OVCAR-8 ovarian
[31] = system: RPMI-8226 leukemia
[32] = system: SF-268 CNS
[33] = system: SF-295 CNS
[34] = system: SF-539 CNS
[35] = system: SK-MEL-2 melanoma
[36] = system: SK-MEL-28 melanoma
[37] = system: SK-MEL-5 melanoma
[38] = system: SK-OV-3 ovarian
[39] = system: SN12C renal
[40] = system: SNB-19 CNS
[41] = system: SNB-75 CNS
[42] = system: SNB-78 CNS
[43] = system: SW-620 colon
[44] = system: TK-10 renal
[45] = system: U251 CNS
[46] = system: UACC-62 melanoma
[47] = system: UO-31 renal
[48] = system: XF 498 CNS
[49] = system: 786-0 renal
[50] = system: A549 NSCLC
[51] = system: KM12 colon
[52] = system: NCI-H23 lung
[53] = system: OVCAR-4 ovarian
[54] = system: OVCAR-5 ovarian
[55] = system: RXF 393 renal
[56] = system: UACC-257 melanoma
[57] = system: HCC-2998 colon

COc1ccc(/C(Cl)=C(\C=O)c2ccc(Cl)c(Cl)c2)cc1
TGI [1]: 35.6 µM | TGI [2]: 20 µM | TGI [3]: 23 µM | TGI [4]: 30.2 µM | TGI [5]: 36.6 µM | TGI [6]: 25.5 µM | TGI [7]: 18 µM | TGI [8]: 32.8 µM | TGI [9]: 37.9 µM | TGI [10]: 14.1 µM | TGI [11]: 20.4 µM | TGI [12]: 23.9 µM | TGI [13]: 28.3 µM | TGI [14]: 27.2 µM | TGI [15]: 24.3 µM | TGI [16]: 15.5 µM | TGI [17]: 33.7 µM | TGI [18]: > 100 µM | TGI [19]: 24 µM | TGI [20]: 13.9 µM | TGI [21]: 20.4 µM | TGI [22]: 38 µM | TGI [23]: 28.2 µM | TGI [24]: 34.1 µM | TGI [25]: 7.36 µM | TGI [26]: 36.4 µM | TGI [27]: 19 µM | TGI [28]: 7.76 µM | TGI [29]: 31.9 µM | TGI [30]: 32.3 µM | TGI [31]: 8.05 µM | TGI [32]: 24.9 µM | TGI [33]: 22 µM | TGI [34]: 22.2 µM | TGI [35]: 15.5 µM | TGI [36]: 31 µM | TGI [37]: 25.8 µM | TGI [38]: 55 µM | TGI [39]: 29.2 µM | TGI [40]: 30.1 µM | TGI [41]: 7.87 µM | TGI [42]: 49 µM | TGI [43]: 19.3 µM | TGI [44]: 32.5 µM | TGI [45]: 18.4 µM | TGI [46]: 26.7 µM | TGI [47]: 26.8 µM | TGI [48]: 24.3 µM

N#Cc1cccc(N2C(=O)c3ccc(C(=O)c4ccc5c(c4)C(=O)N(c4cccc(C#N)c4)C5=O)cc3C2=O)c1
TGI [49]: > 100 µM | TGI [1]: > 100 µM | TGI [50]: > 100 µM | TGI [3]: > 100 µM | TGI [4]: > 100 µM | TGI [5]: > 100 µM | TGI [6]: > 100 µM | TGI [7]: > 100 µM | TGI [8]: > 100 µM | TGI [9]: > 100 µM | TGI [10]: > 100 µM | TGI [11]: > 100 µM | TGI [12]: > 100 µM | TGI [13]: > 100 µM | TGI [14]: > 100 µM | TGI [15]: > 100 µM | TGI [16]: > 100 µM | TGI [17]: > 100 µM | TGI [18]: > 100 µM | TGI [51]: > 100 µM | TGI [19]: > 100 µM | TGI [20]: > 100 µM | TGI [21]: > 100 µM | TGI [22]: > 100 µM | TGI [23]: > 100 µM | TGI [24]: > 100 µM | TGI [25]: > 100 µM | TGI [26]: > 100 µM | TGI [52]: > 100 µM | TGI [27]: > 100 µM | TGI [28]: > 100 µM | TGI [29]: > 100 µM | TGI [53]: > 100 µM | TGI [54]: > 100 µM | TGI [30]: > 100 µM | TGI [31]: > 100 µM | TGI [55]: > 100 µM | TGI [32]: > 100 µM | TGI [33]: > 100 µM | TGI [34]: > 100 µM | TGI [35]: > 100 µM | TGI [37]: > 100 µM | TGI [38]: > 100 µM | TGI [39]: > 100 µM | TGI [40]: > 100 µM | TGI [41]: > 100 µM | TGI [42]: > 100 µM | TGI [43]: > 100 µM | TGI [44]: > 100 µM | TGI [45]: > 100 µM | TGI [56]: > 100 µM | TGI [46]: > 100 µM | TGI [47]: > 100 µM | TGI [48]: > 100 µM

Cc1cn(C2CC(n3cncn3)C(C(C)O)O2)c(=O)[nH]c1=O (stereo unspecified)
TGI [49]: > 100 µM | TGI [50]: > 100 µM | TGI [2]: > 100 µM | TGI [4]: > 100 µM | TGI [5]: > 100 µM | TGI [6]: > 100 µM | TGI [7]: > 100 µM | TGI [8]: > 100 µM | TGI [9]: > 100 µM | TGI [57]: > 100 µM | TGI [10]: > 100 µM | TGI [11]: > 100 µM | TGI [12]: > 100 µM | TGI [13]: > 100 µM | TGI [15]: > 100 µM | TGI [16]: > 100 µM | TGI [17]: > 100 µM | TGI [18]: > 100 µM | TGI [51]: > 100 µM | TGI [19]: > 100 µM | TGI [20]: > 100 µM | TGI [21]: > 100 µM | TGI [22]: > 100 µM | TGI [23]: > 100 µM | TGI [24]: > 100 µM | TGI [25]: > 100 µM | TGI [26]: > 100 µM | TGI [52]: > 100 µM | TGI [27]: > 100 µM | TGI [28]: > 100 µM | TGI [29]: > 100 µM | TGI [53]: > 100 µM | TGI [54]: > 100 µM | TGI [30]: > 100 µM | TGI [31]: > 100 µM | TGI [55]: > 100 µM | TGI [32]: > 100 µM | TGI [33]: > 100 µM | TGI [34]: > 100 µM | TGI [35]: > 100 µM | TGI [36]: > 100 µM | TGI [37]: > 100 µM | TGI [38]: > 100 µM | TGI [39]: > 100 µM | TGI [40]: > 100 µM | TGI [41]: > 100 µM | TGI [42]: > 100 µM | TGI [43]: > 100 µM | TGI [44]: > 100 µM | TGI [45]: > 100 µM | TGI [56]: > 100 µM | TGI [46]: > 100 µM | TGI [47]: > 100 µM | TGI [48]: > 100 µM
